Assays:
Estrogen receptor beta = Estrogen receptor beta (Homo sapiens, UniProt Q92731)
Description: Binding affinity for estrogen receptor beta

Estrogen receptor [1] = target: T1, Estrogen receptor (Homo sapiens, UniProt P03372)
T1 sequence (P03372 whole entry): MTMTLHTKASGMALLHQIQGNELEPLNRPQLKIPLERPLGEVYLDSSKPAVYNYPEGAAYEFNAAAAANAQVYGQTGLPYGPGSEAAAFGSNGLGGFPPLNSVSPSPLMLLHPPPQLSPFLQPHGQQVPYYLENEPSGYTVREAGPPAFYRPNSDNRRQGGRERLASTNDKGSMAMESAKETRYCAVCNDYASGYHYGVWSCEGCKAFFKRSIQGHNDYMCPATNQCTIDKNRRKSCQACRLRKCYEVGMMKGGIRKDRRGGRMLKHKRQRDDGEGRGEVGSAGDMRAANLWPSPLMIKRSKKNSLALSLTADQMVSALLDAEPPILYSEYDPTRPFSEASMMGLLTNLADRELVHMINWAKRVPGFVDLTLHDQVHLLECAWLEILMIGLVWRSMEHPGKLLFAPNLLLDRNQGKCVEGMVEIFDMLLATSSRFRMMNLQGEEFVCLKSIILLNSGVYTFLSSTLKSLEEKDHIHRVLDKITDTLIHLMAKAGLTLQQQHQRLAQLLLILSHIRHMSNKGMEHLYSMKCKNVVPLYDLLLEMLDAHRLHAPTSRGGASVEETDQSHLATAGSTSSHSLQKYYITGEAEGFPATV
Description: Binding affinity for estrogen receptor alpha

Estrogen receptor [2] = target: Estrogen receptor (Homo sapiens, UniProt Q92731+P03372)
Description: Inhibition of estradiol-stimulated MCF-7 breast adenocarcinoma cell proliferation

Estrogen receptor beta, sequence (Q92731 whole entry): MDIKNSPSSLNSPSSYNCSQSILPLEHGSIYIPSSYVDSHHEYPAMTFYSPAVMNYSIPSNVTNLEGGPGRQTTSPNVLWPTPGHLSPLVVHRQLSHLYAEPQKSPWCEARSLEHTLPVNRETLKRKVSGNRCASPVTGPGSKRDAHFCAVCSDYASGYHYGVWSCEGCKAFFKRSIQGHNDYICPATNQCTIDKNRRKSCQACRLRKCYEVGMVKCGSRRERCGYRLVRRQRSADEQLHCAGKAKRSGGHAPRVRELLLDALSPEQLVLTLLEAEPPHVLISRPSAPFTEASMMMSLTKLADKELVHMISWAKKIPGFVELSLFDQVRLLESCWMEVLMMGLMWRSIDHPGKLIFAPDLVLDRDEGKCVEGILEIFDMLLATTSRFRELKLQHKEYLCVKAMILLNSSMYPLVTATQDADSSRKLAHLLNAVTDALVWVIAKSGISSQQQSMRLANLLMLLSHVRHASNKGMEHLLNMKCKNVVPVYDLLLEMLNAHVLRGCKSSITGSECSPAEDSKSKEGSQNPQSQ

Ki (Estrogen receptor beta) [nM] | Ki (Estrogen receptor [1]) [nM] | IC50 (Estrogen receptor [2]) [nM] | SMILES
> 1000 |  | 990 | O=C(c1ccc(OCCN2CCCCC2)cc1)N1c2ccc(O)cc2CCC1c1ccc(O)cc1 (stereo not given)
 | 1.1 | 68 | Oc1ccc(C2CCc3cc(O)ccc3N2Cc2ccc(OCCN3CCCC3)cc2)cc1 (stereo not given)
5.5 |  |  | Oc1cccc(C2CCc3cc(O)ccc3N2Cc2ccc(OCCN3CCCCC3)cc2)c1 (stereo not given)
> 1000 | 37 | 590 | O=C(c1ccc(OCCN2CCCCC2)cc1)N1c2ccc(O)cc2CCC1c1cccc(O)c1 (stereo not given)
35 | 310 |  | Oc1ccc(-c2ccc3cc(O)ccc3n2)cc1
4 | 1.7 | 490 | Oc1ccc2c(c1)CCC(c1ccccc1)N2Cc1ccc(OCCN2CCCCC2)cc1 (stereo not given)

SMILES | Ki (Estrogen receptor beta) [nM] | Ki (Estrogen receptor [1]) [nM] | IC50 (Estrogen receptor [2]) [nM]
Oc1ccc(C2CCc3cc(O)ccc3N2)cc1 (stereo not given) | 65 | 170 | 

Reference: ChEMBL document CHEMBL1136521, “Tetrahydroquinoline-based selective estrogen receptor modulators (SERMs)” (Bioorg Med Chem Lett, 2003)
